Source: patent US9018224B2, “Substituted cyclopropyl compounds useful as GPR119 agonists” (Merck Sharp & Dohme Corp., priority 2011, dated 2015)

These compounds were tested against T1, human GPR119 (Homo sapiens, UniProt Q8TDV5) (assay: Measurement of GPR119 signaling by cAMP (LANCE cAMP kit or HTRF) in HEK293 cells transfected with human GPR119). Conditions: agonist cAMP response in HEK293 cells stably transfected with human GPR119; patent does not say which of the two cAMP formats (LANCE or HTRF).
T1 sequence (Q8TDV5 1-308 limits assumed): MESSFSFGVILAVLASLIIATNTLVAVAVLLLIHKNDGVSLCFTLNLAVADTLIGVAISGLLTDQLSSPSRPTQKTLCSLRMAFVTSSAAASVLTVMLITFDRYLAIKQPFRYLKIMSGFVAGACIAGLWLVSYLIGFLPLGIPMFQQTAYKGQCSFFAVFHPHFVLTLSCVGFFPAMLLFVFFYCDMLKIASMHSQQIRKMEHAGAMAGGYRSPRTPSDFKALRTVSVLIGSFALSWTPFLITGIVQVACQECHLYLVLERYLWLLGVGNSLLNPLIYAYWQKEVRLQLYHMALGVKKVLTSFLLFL
Assay type: cell-based
Procedure: Measurement of GPR119 Signaling Using LANCE 384-Well cAMP Kit
The adenylate cyclase assay was constructed following the LANCE™ cAMP Kit (Perkin Elmer, AD0264) instructions. […] The reaction was stopped by incubating with the supplied detection buffer containing the europium chelate of the Eu-SA/Biotin-cAMP tracer for 3 hours. The assay was performed in duplicate in a 384 well plate for duplicate plates. […] Basal activity was determined using a DMSO control and maximum response was defined as cAMP stimulation produced by an internal agonist control. Standard cAMP concentrations were assayed concurrently for conversion of fluorescence signal to cAMP level. The data was analyzed using 4-parameter curve fit in Microsoft Excel
Measurement of GPR119 Signaling Using a Cyclic AMP (cAMP) Homogenous Time Resolved Fluorescence (HTRF) Assay
Chinese hamster ovary (CHO) cell lines stably transfected with the permissive guanine nucleotide binding protein alpha 15 (Gα15) and murine GPR119 were maintained in DMEM media containing FBS, penicillin-streptomycin, puromycin, and G418 (geneticin). […] Agonist activation of the GPR119 receptor was measured in receptor transfected cells described above, treated with compounds of this invention, using a commercial homogenous time resolved fluorescence (HTRF) kit for measurement of cAMP (CisBio, Bedford, Mass.). The assay was performed in 96-well half-volume plates (murine) or 384-well plates (human) following the manufacturers instructions. Briefly, suspended cells were incubated with a dose titration of test compound at room temperature for 60 min, lysed, and incubated with HTRF reagents for an additional 60 min. The plate was read using an Envision multilabel reader (Perkin Elmer) adjusted to read time resolved fluorescence and the cAMP concentrations were extrapolated from a cAMP calibration curve. […] The concentration of test compound required to stimulate a half-maximal response (EC50), and efficacy as compared to an internal agonist control, was determined from a sigmoidal 4-parameter curve fit of the resulting plot of normalized activity versus compound concentration.

Compound	EC50 [nM]
COCc1cnc(N2CCC([C@H]3C[C@H]3CCOc3ccc(CC(=O)N4CC(F)C4)c(F)c3)CC2)nc1 [Example 43]	0.54
COCc1cnc(N2CCC([C@H]3C[C@H]3CCOc3ccc(CC(=O)N4CC(C)(O)C4)c(F)c3)CC2)nc1 [Example 44]	3.6
COCc1cnc(N2CCC([C@H]3C[C@H]3CCOc3ccc(CC(=O)N4CC(OC)C4)c(F)c3)CC2)nc1 [Example 45]	0.81
COCc1cnc(N2CCC([C@H]3C[C@H]3CCOc3ccc(CC(=O)N4CCOCC4)c(F)c3)CC2)nc1 [Example 46]	1.8
COCc1cnc(N2CCC([C@H]3C[C@H]3CCOc3ccc(CC(=O)N(C)C)c(F)c3)CC2)nc1 [Example 47]	1.3
COCc1cnc(N2CCC([C@H]3C[C@H]3CCOc3ccc(CC(=O)N4CCCCC4)c(F)c3)CC2)nc1 [Example 48]	0.99
COCc1cnc(N2CCC([C@H]3C[C@H]3CCOc3ccc(CC(=O)N4CCC[C@@H]4C)c(F)c3)CC2)nc1 [Example 49]	1.6
COCc1cnc(N2CCC([C@H]3C[C@H]3CCOc3ccc(CC(=O)N4C[C@H](F)[C@@H](F)C4)c(F)c3)CC2)nc1 [Example 50]	1
COCc1cnc(N2CCC([C@H]3C[C@H]3CCOc3ccc(CC(=O)N4CC5CC5C4)c(F)c3)CC2)nc1 (some centres unmarked) [Example 51]	0.98
COCc1cnc(N2CCC([C@H]3C[C@H]3CCOc3ccc(CC(=O)N4CCCC4(F)F)c(F)c3)CC2)nc1 [Example 52]	0.36
COCc1cnc(N2CCC([C@H]3C[C@H]3CCOc3ccc(CC(=O)N(C)C4COC4)c(F)c3)CC2)nc1 [Example 54]	2.5
COCc1cnc(N2CCC([C@H]3C[C@H]3CCOc3ccc(CC(=O)N(C)C4CC4)c(F)c3)CC2)nc1 [Example 55]	4.4
COCc1cnc(N2CCC([C@H]3C[C@H]3CCOc3ccc(CC(=O)N4CCC(O)CC4)c(F)c3)CC2)nc1 [Example 56]	3.7
COCc1cnc(N2CCC([C@H]3C[C@H]3CCOc3ccc(CC(=O)N4CCc5nn[nH]c5C4)c(F)c3)CC2)nc1 [Example 57]	3
COCc1cnc(N2CCC([C@H]3C[C@H]3CCOc3ccc(CC(=O)N4CCc5nc(C)oc5C4)c(F)c3)CC2)nc1 [Example 58]	1.2
COCc1cnc(N2CCC([C@H]3C[C@H]3CCOc3ccc(CC(=O)N4CCn5cnnc5C4)c(F)c3)CC2)nc1 [Example 59]	7.3
O=C(Cc1ccc(OCC[C@@H]2C[C@@H]2C2CCN(c3ncc(Cl)cn3)CC2)cc1F)N1CCC1 [Example 60, 1-(azetidin-1-yl)-2-[4-(2-{(1S,2R)-2-[1-(5-chloropyrimidin-2-yl)piperidin-4-yl]cyclopropyl}ethoxy)-2-fluorophenyl]ethanone]	0.19
COC(=O)Cc1ccc(OCC[C@@H]2C[C@@H]2C2CCN(c3ncc(Cl)cn3)CC2)cc1F [Example 61]	0.7
O=C(Cc1ccc(OCC[C@@H]2C[C@@H]2C2CCN(c3ncc(Cl)cn3)CC2)cc1F)NC1CC1 [Example 62]	1.4
O=C(Cc1ccc(OCC[C@@H]2C[C@@H]2C2CCN(c3ncc(Cl)cn3)CC2)cc1F)NC1CCC1 [Example 63]	4.2
CC1CN(C(=O)Cc2ccc(OCC[C@@H]3C[C@@H]3C3CCN(c4ncc(Cl)cn4)CC3)cc2F)C1 [Example 64]	0.95
O=C(Cc1ccc(OCC[C@@H]2C[C@@H]2C2CCN(c3ncc(Cl)cn3)CC2)cc1F)N1CC(O)C1 [Example 65]	0.22
CC1(O)CN(C(=O)Cc2ccc(OCC[C@@H]3C[C@@H]3C3CCN(c4ncc(Cl)cn4)CC3)cc2F)C1 [Example 66]	0.4
O=C(Cc1ccc(OCC[C@@H]2C[C@@H]2C2CCN(c3ncc(Cl)cn3)CC2)cc1F)N1CC(O)(C(F)(F)F)C1 [Example 67]	0.68
O=C(Cc1ccc(OCC[C@@H]2C[C@@H]2C2CCN(c3ncc(Cl)cn3)CC2)cc1F)N1CC(F)C1 [Example 68]	0.33

Compound	EC50 [nM]
COC1CN(C(=O)Cc2ccc(OCC[C@@H]3C[C@@H]3C3CCN(c4ncc(Cl)cn4)CC3)cc2F)C1 [Example 69]	0.17
CC1(C)CN(C(=O)Cc2ccc(OCC[C@@H]3C[C@@H]3C3CCN(c4ncc(Cl)cn4)CC3)cc2F)C1 [Example 70]	0.8
O=C(Cc1ccc(OCC[C@@H]2C[C@@H]2C2CCN(c3ncc(Cl)cn3)CC2)cc1F)N1CC(F)(F)C1 [Example 71]	1.2
O=C(Cc1ccc(OCC[C@@H]2C[C@@H]2C2CCN(c3ncc(Cl)cn3)CC2)cc1F)N1CCC(F)(F)C1 [Example 72]	0.5
C[C@H]1CCCN1C(=O)Cc1ccc(OCC[C@@H]2C[C@@H]2C2CCN(c3ncc(Cl)cn3)CC2)cc1F [Example 73]	2.7
CC1(O)CCN(C(=O)Cc2ccc(OCC[C@@H]3C[C@@H]3C3CCN(c4ncc(Cl)cn4)CC3)cc2F)C1 (some centres unmarked) [Example 74]	4.2
O=C(Cc1ccc(OCC[C@@H]2C[C@@H]2C2CCN(c3ncc(Cl)cn3)CC2)cc1F)N1C[C@H](F)[C@@H](F)C1 [Example 75]	0.78
O=C(Cc1ccc(OCC[C@@H]2C[C@@H]2C2CCN(c3ncc(Cl)cn3)CC2)cc1F)N1CCC[C@@H]1C(F)(F)F [Example 76]	2.4
O=C(Cc1ccc(OCC[C@@H]2C[C@@H]2C2CCN(c3ncc(Cl)cn3)CC2)cc1F)NCC1CC1 [Example 77, 2-[4-(2-(1S,2R)-2-[1-(5-chloropyrimidin-2-yl)piperidin-4-yl]cyclopropylethoxy)-2-fluorophenyl]-N-(cyclopropylmethyl)acetamide]	1.5
COC[C@@H]1CCCN1C(=O)Cc1ccc(OCC[C@@H]2C[C@@H]2C2CCN(c3ncc(Cl)cn3)CC2)cc1F [Example 78]	3.8
O=C(Cc1ccc(OCC[C@@H]2C[C@@H]2C2CCN(c3ncc(Cl)cn3)CC2)cc1F)NCC(F)(F)F [Example 79]	1.6
O=C(Cc1ccc(OCC[C@@H]2C[C@@H]2C2CCN(c3ncc(Cl)cn3)CC2)cc1F)N1CCOCC1 [Example 80]	0.76
CN(C)C(=O)Cc1ccc(OCC[C@@H]2C[C@@H]2C2CCN(c3ncc(Cl)cn3)CC2)cc1F [Example 81]	0.63
CN(C(=O)Cc1ccc(OCC[C@@H]2C[C@@H]2C2CCN(c3ncc(Cl)cn3)CC2)cc1F)C1CCCC1 [Example 82]	2.9
O=C(Cc1ccc(OCC[C@@H]2C[C@@H]2C2CCN(c3ncc(Cl)cn3)CC2)cc1F)NC1CCCC1 [Example 83]	1.3
O=C(Cc1ccc(OCC[C@@H]2C[C@@H]2C2CCN(c3ncc(Cl)cn3)CC2)cc1F)N1CCCCC1 [Example 84]	1.5
O=C(Cc1ccc(OCC[C@@H]2C[C@@H]2C2CCN(c3ncc(Cl)cn3)CC2)cc1F)N1CCCC1 [Example 85]	0.61
O=C(Cc1ccc(OCC[C@@H]2C[C@@H]2C2CCN(c3ncc(Cl)cn3)CC2)cc1F)N1CCC(F)(F)CC1 [Example 86]	0.8
O=C(Cc1ccc(OCC[C@@H]2C[C@@H]2C2CCN(c3ncc(Cl)cn3)CC2)cc1F)NC1(C(F)(F)F)CC1 [Example 87]	3.6
O=C(Cc1ccc(OCC[C@@H]2C[C@@H]2C2CCN(c3ncc(Cl)cn3)CC2)cc1F)NC1CC1(F)F (some centres unmarked) [Example 88]	1.7
CC1CC(C)CN(C(=O)Cc2ccc(OCC[C@@H]3C[C@@H]3C3CCN(c4ncc(Cl)cn4)CC3)cc2F)C1 (some centres unmarked) [Example 89]	8.6
CC1CCC(C)N1C(=O)Cc1ccc(OCC[C@@H]2C[C@@H]2C2CCN(c3ncc(Cl)cn3)CC2)cc1F (some centres unmarked) [Example 90]	7.2
CC1(NC(=O)Cc2ccc(OCC[C@@H]3C[C@@H]3C3CCN(c4ncc(Cl)cn4)CC3)cc2F)CCCCC1 [Example 91]	9.3
CC1(NC(=O)Cc2ccc(OCC[C@@H]3C[C@@H]3C3CCN(c4ncc(Cl)cn4)CC3)cc2F)CCC1 [Example 92]	4
CC1(NC(=O)Cc2ccc(OCC[C@@H]3C[C@@H]3C3CCN(c4ncc(Cl)cn4)CC3)cc2F)CC1 [Example 93]	3.7
